Measured values reported in PubChem BioAssay (NCI).
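1) Cells in 96-well plates. 2) Compound, 48 h, 5 concentrations. 3) Linear interpolation between surrounding doses. 4) Unreached endpoint = highest concentration. GI50 is the concentration that inhibits growth by half. TGI denotes the concentration required for complete inhibition of growth.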

Tests used:
Experiment in all cases: growth of human tumour cells (NCI), 48 h
HCC-2998 colon = system: HCC-2998 colon
UO-31 renal = system: UO-31 renal
U251 CNS = system: U251 CNS
RPMI-8226 leukemia = system: RPMI-8226 leukemia
HCT-116 colon = system: HCT-116 colon
HOP-62 NSCLC = system: HOP-62 NSCLC
UACC-257 melanoma = system: UACC-257 melanoma
CAKI-1 renal = system: CAKI-1 renal
SR leukemia = system: SR leukemia
MCF7 breast = system: MCF7 breast

## O=C(CC1SC(=Nc2ccccc2Cl)NC1=O)Nc1ccc(Cl)cc1Cl (configuration not stated)
HCC-2998 colon
  TGI: > 100 µM
UO-31 renal
  TGI: > 100 µM
U251 CNS
  TGI: > 100 µM
RPMI-8226 leukemia
  TGI: > 100 µM
HCT-116 colon
  TGI: > 100 µM
HOP-62 NSCLC
  TGI: > 100 µM
UACC-257 melanoma
  TGI: > 100 µM

## CC1(c2ccccc2Cl)C(C#N)C(=O)NC(=O)C1C#N (configuration not stated)
HCC-2998 colon
  TGI: > 100 µM
UO-31 renal
  TGI: > 100 µM
RPMI-8226 leukemia
  TGI: 59.6 µM
HOP-62 NSCLC
  TGI: > 100 µM
CAKI-1 renal
  TGI: > 100 µM
UACC-257 melanoma
  TGI: > 100 µM

## O=S(=O)(/C=C/C(=C/c1ccccc1)S(=O)(=O)c1ccccc1)c1ccccc1
HCC-2998 colon
  TGI: 3.45 µM
SR leukemia
  TGI: 4.41 µM
UO-31 renal
  TGI: 3.22 µM
U251 CNS
  TGI: 3.27 µM
RPMI-8226 leukemia
  TGI: 3.4 µM
HCT-116 colon
  TGI: 3.13 µM
HOP-62 NSCLC
  TGI: 3.5 µM
CAKI-1 renal
  TGI: 2.88 µM
UACC-257 melanoma
  TGI: 2.89 µM

## O=c1[nH]cc(F)c(=O)n1C1OC(CO)C(O)C1O (configuration not stated)
HCC-2998 colon
  TGI: > 100 µM
UO-31 renal
  TGI: > 100 µM
U251 CNS
  TGI: > 100 µM
RPMI-8226 leukemia
  TGI: > 100 µM
HOP-62 NSCLC
  TGI: > 100 µM
CAKI-1 renal
  TGI: > 100 µM
UACC-257 melanoma
  TGI: > 100 µM

## Cc1ccccc1NC(=O)C(=O)C(C#N)c1ccccc1C (configuration not stated)
HCC-2998 colon
  TGI: > 100 µM
SR leukemia
  TGI: > 100 µM
UO-31 renal
  TGI: > 100 µM
U251 CNS
  TGI: > 100 µM
RPMI-8226 leukemia
  TGI: > 100 µM
HCT-116 colon
  TGI: > 100 µM
HOP-62 NSCLC
  TGI: > 100 µM
CAKI-1 renal
  TGI: > 100 µM
UACC-257 melanoma
  TGI: > 100 µM

## N#Cc1ccc(C=NC23CC4CC(CC(C4)C2)C3)cc1
HCC-2998 colon
  TGI: > 100 µM
SR leukemia
  TGI: > 100 µM
UO-31 renal
  TGI: > 100 µM
U251 CNS
  TGI: > 100 µM
RPMI-8226 leukemia
  TGI: > 100 µM
HCT-116 colon
  TGI: > 100 µM
HOP-62 NSCLC
  TGI: > 100 µM
CAKI-1 renal
  TGI: > 100 µM
UACC-257 melanoma
  TGI: > 100 µM

## C[N+](C)(C)CC1CCCC1=O (configuration not stated)
HCC-2998 colon
  TGI: 29.9 µM
UO-31 renal
  TGI: 8.79 µM
U251 CNS
  TGI: 29.3 µM
RPMI-8226 leukemia
  TGI: 11.2 µM
HCT-116 colon
  TGI: 3.74 µM
HOP-62 NSCLC
  TGI: > 68 µM
CAKI-1 renal
  TGI: 6.61 µM
UACC-257 melanoma
  TGI: 13.3 µM

## N#CCCN1C/C(=C/c2ccc(Cl)cc2)C(=O)/C(=C/c2ccc(Cl)cc2)C1
HCC-2998 colon
  GI50: 1.84 µM
  TGI: 3.33 µM
UO-31 renal
  GI50: 1.39 µM
  TGI: 2.77 µM
U251 CNS
  GI50: 0.417 µM
  TGI: 1.48 µM
RPMI-8226 leukemia
  GI50: 0.255 µM
  TGI: 0.795 µM
HCT-116 colon
  GI50: 0.25 µM
  TGI: 0.59 µM
HOP-62 NSCLC
  GI50: 0.516 µM
  TGI: 2.94 µM
CAKI-1 renal
  GI50: 2.95 µM
  TGI: 12 µM
UACC-257 melanoma
  GI50: 2.05 µM
  TGI: 4.38 µM
MCF7 breast
  GI50: 0.42 µM
  TGI: 2.81 µM

## CCOC(=O)/C(C#N)=C(O)/C(=C\c1ccc(Br)cc1)NC(=O)c1ccccc1
HCC-2998 colon
  TGI: > 100 µM
UO-31 renal
  TGI: > 100 µM
U251 CNS
  TGI: > 100 µM
RPMI-8226 leukemia
  TGI: 59.6 µM
HCT-116 colon
  TGI: 34.5 µM
HOP-62 NSCLC
  TGI: > 100 µM
CAKI-1 renal
  TGI: > 100 µM
UACC-257 melanoma
  TGI: > 100 µM

## CC(C)=CC(=O)N(C)C1C2CN3CCC(O2)C13 (configuration not stated)
HCC-2998 colon
  TGI: > 100 µM
UO-31 renal
  TGI: > 100 µM
U251 CNS
  TGI: > 100 µM
HCT-116 colon
  TGI: > 100 µM
HOP-62 NSCLC
  TGI: > 100 µM
CAKI-1 renal
  TGI: > 100 µM
UACC-257 melanoma
  TGI: > 100 µM

## Cc1ccc(S(=O)(=O)N/N=C(/CC(=O)c2c(C)n([O-])c3ccccc3[n+]2=O)C(=O)Nc2ccccc2C)cc1
HCC-2998 colon
  TGI: > 100 µM
SR leukemia
  TGI: > 100 µM
UO-31 renal
  TGI: > 100 µM
U251 CNS
  TGI: > 100 µM
RPMI-8226 leukemia
  TGI: > 100 µM
HCT-116 colon
  TGI: > 100 µM
HOP-62 NSCLC
  TGI: > 100 µM
CAKI-1 renal
  TGI: > 100 µM
UACC-257 melanoma
  TGI: > 100 µM

## CCCCCCCCCCCCC(Br)C(=O)NCC(N)=O (configuration not stated)
HCC-2998 colon
  TGI: 31 µM
UO-31 renal
  TGI: 6.92 µM
U251 CNS
  TGI: 24.6 µM
HCT-116 colon
  TGI: 3.72 µM
HOP-62 NSCLC
  TGI: 29.3 µM
UACC-257 melanoma
  TGI: 24.7 µM

## C=C1CCC2[C@@H](CCC3[C@]2(C)CCC[C@]3(C)C(=O)OC)C1CC=O (some centres not stated)
UO-31 renal
  GI50: 14.8 µM
  TGI: 28.9 µM
U251 CNS
  GI50: 17.8 µM
  TGI: 33.5 µM
RPMI-8226 leukemia
  GI50: 8.28 µM
  TGI: 33.4 µM
HCT-116 colon
  TGI: 29.4 µM
HOP-62 NSCLC
  GI50: 21.2 µM
  TGI: 39.8 µM
CAKI-1 renal
  GI50: 16.4 µM
  TGI: 30.1 µM
UACC-257 melanoma
  TGI: 31 µM

## O=C(O)/C=C/c1nc2ccccc2c(=O)o1
HCC-2998 colon
  TGI: > 100 µM
UO-31 renal
  TGI: > 100 µM
U251 CNS
  TGI: > 100 µM
RPMI-8226 leukemia
  TGI: > 100 µM
HCT-116 colon
  TGI: > 100 µM

## C=CNC(=O)NC(=O)CSc1nnc(-c2ccccc2NC(=O)C(F)(F)F)c(=O)[nH]1
HCC-2998 colon
  TGI: > 100 µM
SR leukemia
  TGI: > 100 µM
UO-31 renal
  TGI: > 100 µM
U251 CNS
  TGI: > 100 µM
HCT-116 colon
  TGI: > 100 µM
HOP-62 NSCLC
  TGI: > 100 µM
CAKI-1 renal
  TGI: > 100 µM

## C[CH2][Sn]([CH2]C)([O]C(=O)c1ccccc1OC)[O][Sn]([CH2]C)([CH2]C)[O]C(=O)c1ccccc1OC
HCC-2998 colon
  GI50: > 100 µM
  TGI: > 100 µM
SR leukemia
  GI50: > 100 µM
  TGI: > 100 µM
UO-31 renal
  GI50: > 100 µM
  TGI: > 100 µM
U251 CNS
  GI50: > 100 µM
  TGI: > 100 µM
HCT-116 colon
  GI50: > 100 µM
  TGI: > 100 µM
HOP-62 NSCLC
  GI50: > 100 µM
  TGI: > 100 µM
CAKI-1 renal
  GI50: 34.6 µM
  TGI: > 100 µM
UACC-257 melanoma
  GI50: > 100 µM
  TGI: > 100 µM

## COc1cc2c(cc1OCCCCN1CCN(C(=S)SCCC(C#N)(c3ccccc3)c3ccccc3)CC1)N=C[C@@H]1CCCN1C2=O
UO-31 renal
  GI50: 0.593 µM
  TGI: 2.09 µM
U251 CNS
  GI50: 1.11 µM
  TGI: 2.66 µM
RPMI-8226 leukemia
  GI50: 0.496 µM
  TGI: 2.89 µM
HOP-62 NSCLC
  GI50: 0.719 µM
  TGI: 2.4 µM
CAKI-1 renal
  GI50: 0.597 µM
  TGI: 2.7 µM
UACC-257 melanoma
  GI50: 1.97 µM
  TGI: 4.17 µM
MCF7 breast
  GI50: 0.435 µM
  TGI: 2.23 µM
